Assay results reported in patent US7713994B2 (Wyeth LLC, priority 2005, dated 2010).
Like-named read-outs stand apart in the source and are kept apart here.

Tests used:
cyclin D1/cdk 4 enzyme = target: T1, cyclin D1/cdk 4 enzyme (Homo sapiens, UniProt P11802); experiment: CDK4 ELISA kinase assay (phospho-Rb ser 795 detection); format: biochemical; conditions: In Vitro Enzyme Assays, 200 μM ATP, read-out: CDK4 IC50
T1 construct: made in house; host or cells: Sf9 insect cells, recombinant baculovirus
T1 sequence (P11802 whole entry, species assumed): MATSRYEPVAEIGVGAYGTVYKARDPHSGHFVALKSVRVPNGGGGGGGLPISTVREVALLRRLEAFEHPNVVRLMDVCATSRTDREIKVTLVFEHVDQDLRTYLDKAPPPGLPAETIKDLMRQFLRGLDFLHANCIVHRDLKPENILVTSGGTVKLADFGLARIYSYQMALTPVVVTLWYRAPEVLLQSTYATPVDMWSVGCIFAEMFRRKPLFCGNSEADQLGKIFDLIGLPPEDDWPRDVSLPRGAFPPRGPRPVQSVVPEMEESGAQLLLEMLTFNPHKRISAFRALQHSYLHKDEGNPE
T1 sequence (P24385 whole entry partner, species assumed): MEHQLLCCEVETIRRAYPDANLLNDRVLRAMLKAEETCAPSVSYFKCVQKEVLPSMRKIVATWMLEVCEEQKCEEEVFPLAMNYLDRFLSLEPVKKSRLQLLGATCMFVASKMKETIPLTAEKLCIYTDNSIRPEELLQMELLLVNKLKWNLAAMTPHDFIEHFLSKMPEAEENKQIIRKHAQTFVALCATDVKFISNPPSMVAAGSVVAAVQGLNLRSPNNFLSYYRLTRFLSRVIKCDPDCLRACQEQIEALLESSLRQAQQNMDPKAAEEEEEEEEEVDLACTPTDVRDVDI
In short: (§1)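 Screening was done at 10 ug/ml compound. Each partially purified cyclin/CDK complex, produced in baculovirus-infected Sf9 cells, phosphorylated a coated GST-Rb C-terminal fragment with 200 μM ATP, and Ser795 phosphorylation was quantified by HRP-ELISA at 450 nm.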

cyclin E/CDK2 enzyme = target: T2, cyclin E/CDK2 enzyme (Homo sapiens, UniProt P24941); experiment: CDK2 ELISA kinase assay (phospho-Rb ser 795 detection); format: biochemical; conditions: In Vitro Enzyme Assays, read-out: CDK2 IC50
T2 construct: made in house; host or cells: Sf9 insect cells, recombinant baculovirus
In short: as §1

MCF-7 = experiment: Cytotoxicity assay (SRB), MCF-7; format: cell-based; conditions: MCF-7 cells, SRB, three days, read-out: In Vitro Cellular Activity IC50 MCF-7
In short: (§2)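 Overnight-seeded monolayers (4000–12000 cells/well by line) receive compound in 5% FBS medium at 37 °C, 7% CO2. After 3 d, or 6 d for BT474, cellular protein is fixed with cold TCA, stained with SRB and read at 540 nm against untreated wells.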

HCT-116 = experiment: Cytotoxicity assay (SRB), HCT-116; format: cell-based; conditions: HCT116 cells, SRB, three days, read-out: In Vitro Cellular Activity IC50 HCT116
In short: as §2

BT474 = experiment: Cytotoxicity assay (SRB), BT474; format: cell-based; conditions: BT474 cells, SRB, 6 days, read-out: In Vitro Cellular Activity IC50 BT474
In short: as §2

LoVo = experiment: Cytotoxicity assay (SRB), LoVo; format: cell-based; conditions: LoVo cells, SRB, three days, read-out: In Vitro Cellular Activity IC50 LOVO
In short: as §2

SK-UT-1B = experiment: In Vitro Cellular Activity (Table III), SK-UT-1B; format: cell-based; conditions: SK-UT-1B cells
cyclin B/CDK1 enzyme = target: T3, cyclin B/CDK1 enzyme (Homo sapiens, UniProt P06493); experiment: CDK1 ELISA kinase assay (phospho-Rb ser 795 detection); format: biochemical; conditions: In Vitro Enzyme Assays, read-out: CDK1 IC50
T3 construct: purchased New England BioLabs; host or cells: Sf9 insect cells, recombinant baculovirus
T3 sequence (P06493 whole entry): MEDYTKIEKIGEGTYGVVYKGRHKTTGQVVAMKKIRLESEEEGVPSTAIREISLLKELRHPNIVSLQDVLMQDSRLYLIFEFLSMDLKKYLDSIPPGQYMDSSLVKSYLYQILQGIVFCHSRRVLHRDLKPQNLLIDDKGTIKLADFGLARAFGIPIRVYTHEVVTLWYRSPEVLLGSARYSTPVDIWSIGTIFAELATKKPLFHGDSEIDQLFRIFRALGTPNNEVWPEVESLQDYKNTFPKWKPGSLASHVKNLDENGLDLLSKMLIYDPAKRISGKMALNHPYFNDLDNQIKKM
T3 sequence (P14635 whole entry partner): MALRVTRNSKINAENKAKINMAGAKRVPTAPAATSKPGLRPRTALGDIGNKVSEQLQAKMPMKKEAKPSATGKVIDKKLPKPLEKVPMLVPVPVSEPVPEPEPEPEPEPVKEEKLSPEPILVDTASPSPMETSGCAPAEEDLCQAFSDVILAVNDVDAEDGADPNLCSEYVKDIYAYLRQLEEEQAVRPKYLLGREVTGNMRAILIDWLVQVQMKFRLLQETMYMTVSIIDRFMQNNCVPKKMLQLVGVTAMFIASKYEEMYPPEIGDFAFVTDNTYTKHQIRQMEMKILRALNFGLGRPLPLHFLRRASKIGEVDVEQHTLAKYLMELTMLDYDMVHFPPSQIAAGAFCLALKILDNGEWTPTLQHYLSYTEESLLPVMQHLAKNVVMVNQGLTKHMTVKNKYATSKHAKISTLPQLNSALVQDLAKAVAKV
In short: as §1

Molecule	IC50 (cyclin D1/cdk 4 enzyme)	IC50 (cyclin E/CDK2 enzyme)	IC50 (MCF-7; Homo sapiens, MCF7, 72 h)	IC50 (HCT-116; Homo sapiens, HCT-116, 72 h)	IC50 (BT474; Homo sapiens, BT-474, 144 h)	IC50 (LoVo; Homo sapiens, LoVo, 72 h)	IC50 (SK-UT-1B; Homo sapiens, Skut1B)	IC50 (cyclin B/CDK1 enzyme)	melting point	IC50 (MCF-7)	IC50 (HCT-116)	IC50 (BT474)	IC50 (LoVo)	IC50 (SK-UT-1B)
O=C1NC(=O)c2ccccc2/C1=C/Nc1ccc(N2CCOCC2)cc1 [Example 6, (4Z)-4-{[(4-Morpholin-4-ylphenyl)amino]methylene}isoquinoline-1,3(2H,4H)-dione]	> 50 µM	> 29 µM	> 50 µM	> 50 µM	> 50 µM	> 50 µM	18.3 µM	> 29 µM	–	–	–	–	–	–
O=C1NC(=O)c2cc(Br)ccc2/C1=C/Nc1ccc(CN2CCCCC2)cc1 [Example 44, (4Z)-7-Bromo-4-({[4-(Piperidin-1-ylmethyl)phenyl]amino}methylene)isoquinoline-1,3(2H,4H)-dione]	–	–	6.6 µM	3.6 µM	4.6 µM	4 µM	3.5 µM	–	242 to 243 °C	–	–	–	–	–
O=C1NC(=O)c2ccccc2/C1=C/Nc1ccc(CN2CCOCC2)cc1 [Example 19, (4Z)-4-({[4-(Morpholin-4-ylmethyl)phenyl]amino}methylene)isoquinoline-1,3(2H,4H)-dione]	10.7 µM	21.6 µM	15.9 µM	20 µM	–	–	21.4 µM	> 27 µM	–	–	–	–	–	–
O=C1NC(=O)c2ccc(Br)cc2/C1=C/NCc1cccnc1 [compound 30]	> 50 µM	1.4 µM	15 µM	9.2 µM	31 µM	14 µM	4.9 µM	> 50 µM	–	–	–	–	–	–
COc1cc(CN/C=C2\C(=O)NC(=O)c3ccc(Br)cc32)ccc1O [Example 28, (4Z)-6-Bromo-4-{[(4-hydroxy-3-methoxybenzyl)amino]methylene}isoquinoline-1,3(2H,4H)-dione]	–	–	> 50 µM	28 µM	39 µM	> 50 µM	33 µM	–	260 to 261 °C	–	–	–	–	–
O=C1NC(=O)c2ccc(Br)cc2/C1=C/Nc1ccccc1CN1CCCCC1 [Example 41, (4Z)-6-Bromo-4-({[2-(piperidin-1-ylmethyl)phenyl}amino)methylene]isoquinolin-1,3(2H,4H)-dione]	–	–	13 µM	39 µM	25 µM	49 µM	11 µM	–	170 to 171 °C	–	–	–	–	–
O=C1NCc2ccccc2/C1=C/Nc1ccc(-c2c[nH]cn2)cc1 [compound 3]	42 µM	13 µM	11 µM	7.8 µM	20 µM	12 µM	4.4 µM	> 32 µM	–	–	–	–	–	–
O=C1NC(=O)c2ccccc2/C1=C/Nc1ccc(-c2ccccc2)cc1 [Example 21, (4Z)-4-[(1,1′-Biphenyl-4-ylamino)methylene]isoquinoline-1,3(2H,4H)-dione]	–	–	> 50 µM	> 50 µM	> 50 µM	> 50 µM	19.7 µM	–	261 to 262 °C	–	–	–	–	–
CN1CCN(c2ccc(N/C=C3\C(=O)NC(=O)c4cc(Br)ccc43)cc2)CC1 [Example 45, (4Z)-7-Bromo-4-({[4-(4-methylPiperzin-1-yl)phenyl]amino}methylene)isoquinoline-1,3(2H,4H)-dione]	–	47 µM	18.8 µM	5 µM	19 µM	33 µM	31 µM	> 50 µM	–	–	–	–	–	–
CN1CCN(c2ccc(N/C=C3\C(=O)NC(=O)c4ccc(Br)cc43)cc2)CC1 [Example 27, (4Z)-6-Bromo-4-({[4-(4-methylpiperazin-1-yl)phenyl}amino}methylene)isoquinoline-1,3(2H,4H)-dione]	1.4 µM	> 50 µM	3 µM	3.1 µM	3.1 µM	3.8 µM	3.6 µM	> 50 µM	–	–	–	–	–	–
(4E)-4-[4-(dimethylamino)benzylidene]isoquinoline-1,3(2H,4H)-dione-(4Z)-4-[4-(dimethylamino)benzylidene]isoquinoline-1,3(2H,4H)-dione (1:1) [Example 10]	> 50 µM	> 34 µM	–	–	–	–	–	> 34 µM	–	12.5 µM	2.3 µM	> 50 µM	5.9 µM	23.6 µM
CN(C)Cc1ccc(N/C=C2\C(=O)NC(=O)c3ccccc32)cc1 [Example 25, (4Z)-4-[({4[(Dimethylamino)methyl]phenyl}amino)methylene]isoquinolin-1,3(2H,4H)-dione]	6.6 µM	22.7 µM	5.6 µM	11.5 µM	–	–	16.2 µM	> 29 µM	–	–	–	–	–	–
O=C1NC(=O)c2ccccc2/C1=C/Nc1cccc(CN2CCCC2)c1 [Example 18, (4Z)-4-({[3-(Pyrrolidin-1-ylmethyl)phenyl]amino}methylene)isoquinoline-1,3(2H,4H)-dione]	–	–	15 µM	15 µM	31 µM	23 µM	15.8 µM	–	172 to 173 °C	–	–	–	–	–
(4E)-4-(2,3-dimethoxybenzylidene)isoquinoline-1,3(2H,4H)-dione-(4Z)-4-(2,3-dimethoxybenzylidene)isoquinoline-1,3(2H,4H)-dione (1:1) [Example 9]	> 50 µM	> 32 µM	–	–	–	–	–	> 32 µM	–	9.7 µM	2.5 µM	48 µM	6.8 µM	15.1 µM
COc1ccc(/C=C2/C(=O)NC(=O)c3ccccc32)cc1OC [Example 12, (4E)-4-(3,4-dimethoxybenzylidene)isoquinoline-1,3(2H,4H)-dione]	> 50 µM	> 32 µM	14.5 µM	2.1 µM	> 50 µM	5.4 µM	> 32 µM	> 32 µM	–	–	–	–	–	–
O=C1NC(=O)c2ccccc2/C1=C/Nc1ccc2cn[nH]c2c1 [compound 7]	9.5 µM	5.6 µM	11.2 µM	6.57 µM	–	–	4.3 µM	> 33 µM	–	–	–	–	–	–
CN1CCN(c2ccc(N/C=C3\C(=O)NC(=O)c4ccc([N+](=O)[O-])cc43)cc2)CC1 [Example 33, (4Z)-6-Nitro-4-({[4-(4-methylpiperazin-1-yl)phenyl}amino}methylene)isoquinoline-1,3(2H,4H)-dione]	11 µM	> 50 µM	11 µM	3.3 µM	5.2 µM	3.2 µM	3.3 µM	7.2 µM	–	–	–	–	–	–
